Results on two molecules are retold here after patent publication US8791098B2 (priority 2008, dated 2014).

The structures appear in SMILES notation. Converted amounts (≈) assume the structure as drawn.

The IC50 is the concentration that inhibits the measured activity by half. The inhibition is the share of the control response that was lost under treatment. A high value points to strong suppression.

In test [1] the test system is L929. The test can be described thus: Anti-proliferation MTT assay (Example 2, Table 1). It is filed as cell-based. Conditions: L929 mouse connective tissue fibroblast. In general terms: Tetrazolium dyes change colour on reduction, which living cells bring about.
Procedure: (§5) A given number of cells were cultivated in 96-well plates with serial dilutions of the drugs up to 100 ng/ml. Tubulysin A is used as a positive control, whereas methanol is used as a negative control. After 5 days of incubation the metabolic activities of the cells were measured using MTT-assay as described under the methods section.
Test [2] has as its system A549. The test is described as follows: Anti-proliferation MTT assay (Example 2, Table 1). It is filed as cell-based. The note with it: A549 human lung carcinoma.
Procedure: as §5
The next test has as its system SW-480. The test can be described thus: Anti-proliferation MTT assay (Example 2, Table 1). Format: cell-based. The note with it: SW480; SW-480 human colon adenocarcinoma.
The test system of test [3] is U937. The test can be described thus: Anti-proliferation MTT assay (Example 2, Table 1). It is filed as cell-based. Conditions: U-937; U937 human histiocytic lymphoma.
Procedure: as §5
For test [4], the system named is L929. The test is described as follows: cells. Format: cell-based, mouse. Conditions: Mus musculus; L929, average of two measurements; read-out: IC50. The protocol: (§1) Cytotoxicity testing of pretubulysin (AU827), N-desmethyl-pretubulysin (AU816) and Tubulysin A and D was performed as follows: Cells were seeded at 6×10^3 cells per well of 96-well plates in 180 μl complete medium and directly treated with varying concentrations of (pre-)tubulysins diluted in methanol. Each compound was tested in duplicate as well as the internal methanol control. After 5 d incubation, 20 μl of 5 mg/ml MTT (Thiazolyl blue tetrazolium bromide) in PBS was added per well and it was further incubated for 2 h at 37° C. The medium was then discarded and cells were washed with 100 μl PBS before adding 100 μl 2-propanol/10 N HCl (250:1) in order to dissolve formazan granules.
(§2) The absorbance at 570 nm was measured using a microplate reader (EL808, Bio-Tek Instruments Inc.), and cell viability was expressed as percentage relative to the respective methanol control. IC50 values were obtained by plotting relative growth inhibition in % against the compound concentration on a logarithmic scale. After sigmoidal curve fitting IC50 values can be determined. The IC50[per ml] are shown in the following table (values represent the average of two measurements): […]

Test [5] relates to A549. The test is described as follows: cells. The note with it: Homo sapiens; A549, average of two measurements; read-out: IC50. It is filed as cell-based, human. The protocol: as §1, §2
Another test concerns HEK293T. The test can be described thus: cells. The note with it: Homo sapiens, HEK-293T, average of two measurements, read-out: IC50. Format: cell-based, human. Here is the method: as §1, §2
In another test the test system is K562. The test can be described thus: cells. The note with it: Homo sapiens; K562, average of two measurements; read-out: IC50. Format: cell-based, human. Here is the method: as §1, §2
The next test concerns SH-SY5Y. The test is described as follows: cells. Format: cell-based, human. The note with it: Homo sapiens, average of two measurements, read-out: IC50. The protocol: as §1, §2
For test [6], the system named is U937. The test can be described thus: cells. The note with it: Homo sapiens, U-937; U937, average of two measurements; read-out: IC50. It is filed as cell-based, human. Here is the method: as §1, §2
Test [7] has as its target T1, purified microtubules protein isolated from porcine brain (Sus scrofa, UniProt P02550+P02554).
T1 construct: Microtubules proteins were purified from porcine brain; from tissue; host or cells: porcine brain
The test can be described thus: Turbidometric microtubules protein polymerization assay. Format: biochemical. The note with it: 10 μM microtubules protein, 10 min, 37° C. Here is the method:
(§3) Tubulin purification: Microtubules proteins were purified from porcine brain by using standard procedures that includes three cycles of temperature-dependent polymerization and de-polymerization, as described elsewhere.
(§4) Polymerisation assay: Tubulin polymerisation was monitored by using turbidometry assay (lit). Samples (200 μl, 10 μM tubulin) in PEM polymerisation buffer (0.1 M PIPES, pH 6.6, 1 mM EGTA, 1 mM MgSO4, and 1 mM GTP), were rapidly warmed to 37° C. in a water-jacketed cuvette holder of a diode array photometer (Beckman spectrophotometer DU 7500). Absorbance at 350 nm where monitored in the absence and the presence of the drugs.
10 μM of purified microtubles protein were mixed on ice with 0, 1.7, 3.2, and 6.7 μM pre-tubulysin-816. Microtubules protein polymerization was then monitored for 10 min at 350 nm and 37° C. […] 1.7 μM of the drug was able to inhibit the polymerization of the protein by approximately 20%. Increase the concentration of the drug to 6.7 μM induced an inhibition of the polymerization to 60%.
Therefore, we were interested to test its activity on the polymerization of microtubules in vitro. We first studied its polymerization inhibition potential on microtubules polymerization. 10 μM of purified microtubules protein were mixed on ice with 0, 1, 1.7 and 3.4 μM pre-tubulysin-827 on ice. Microtubules protein polymerization was then monitored for 10 min at 350 nm and 37° C.

A further test deals with HL-60 cells. The test can be described thus: Apoptosis induction, DNA laddering. Format: cell-based, human. The note with it: for apoptosis induction (DNA laddering): HL-60, 24 hours after treatment. Here is the method: Detection of DNA laddering: Apoptotic DNA fragmentation was investigated using the method described by Gong et al. 1-2 μg DNA were loaded into a well of a 1.7% agarose gel, separated by electrophoresis at 4 volts/cm for approximately 4 hours using 0.5×TBE buffer (0.045 M Tris-borate, 1 mM EDTA). The resulting bands were stained by ethidium bromide and detected under UV-light.
Anti-mitotic agents like epothilone (Trivedi, M. et al., Future Oncol. 4, 483-500 (2008)) disorazol (Elnakady, Y. A. et al., Biochem. Pharmacol. 67, 927-935 (2004); Irschik, H. et al., Antibiot. (Tokyo) 48, 31-35 (1995)), and tubulysin (Khalil, M. et al., Chembiochem. 7, 678-683 (2006)) are known to induce apoptosis in different cancer cell lines. A hallmark of apoptosis induced by animitotic agent is the cleavage the chromosomal DNA into distinct fragments which can be separated via gel electrophoresis to give the so called DNA-Ladder. We tested the ability of pre-tubulysin-816 and -827 to induce apoptosis in HL-60 cell lines. Growing cells were treated with different concentrations of the drugs for 24 and 48 hours. After that cells were collected with centrifugation and the chromosomal DNA was separated by using agarose gel electrophoresis as described in the methods section. The resulting DNA bands were stained with ethidium bromide and visualized under UV-light. […] However, the concentration of Pre-tubulysin-816 that was needed to induce apoptosis in HL-60 cells was about 10 folds higher than that of pre-tubulysin-827 under the same experimental conditions. In Summary pre-tubulysins 816 and 827 are novel antimitotic drugs that target the microtubules, induce G2M arrest, and induce apoptosis in cancer cell lines. However, the molecular details of apoptosis induction caused by these Drugs is still to be investigated.

Test [8] addresses T2, preassembled microtubules (Sus scrofa, UniProt P02550+P02554).
T2 construct: Microtubules proteins were purified from porcine brain; from tissue; host or cells: porcine brain
The test can be described thus: De-polymerization of preassembled microtubules (turbidometry). It is filed as biochemical, porcine. The note with it: drug added after about 5 min polymerization at 37° C., monitored 10 min at 350 nm. The protocol: as §3, §4
In order to examine the action of the drug on preassembled microtubules, microtubules proteins were firstly polymerized at 37° C. for approximately 5 min. Then the drug was added, and the stability of the microtubules was measured for further 10 min at 350 nm.

Test [9] deals with L929, A549, SW-480, U937 and HL-60 cell lines. The test can be described thus: Anti-proliferation MTT assay, comparison over the tested cell lines. Format: cell-based.
Procedure: as §5

T1 sequence (P02554 whole entry): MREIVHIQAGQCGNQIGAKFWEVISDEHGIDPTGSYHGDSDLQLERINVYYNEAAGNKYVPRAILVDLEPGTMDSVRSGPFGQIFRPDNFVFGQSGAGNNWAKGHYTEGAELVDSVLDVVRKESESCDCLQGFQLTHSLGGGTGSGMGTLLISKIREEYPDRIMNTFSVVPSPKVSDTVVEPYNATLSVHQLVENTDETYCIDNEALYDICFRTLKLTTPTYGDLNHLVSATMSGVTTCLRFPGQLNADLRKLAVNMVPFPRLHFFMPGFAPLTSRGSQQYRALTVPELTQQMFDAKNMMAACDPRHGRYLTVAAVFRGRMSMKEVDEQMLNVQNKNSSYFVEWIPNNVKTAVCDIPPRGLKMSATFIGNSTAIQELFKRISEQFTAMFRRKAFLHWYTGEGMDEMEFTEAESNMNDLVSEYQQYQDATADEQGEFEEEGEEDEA
T1 sequence (P02550 whole entry): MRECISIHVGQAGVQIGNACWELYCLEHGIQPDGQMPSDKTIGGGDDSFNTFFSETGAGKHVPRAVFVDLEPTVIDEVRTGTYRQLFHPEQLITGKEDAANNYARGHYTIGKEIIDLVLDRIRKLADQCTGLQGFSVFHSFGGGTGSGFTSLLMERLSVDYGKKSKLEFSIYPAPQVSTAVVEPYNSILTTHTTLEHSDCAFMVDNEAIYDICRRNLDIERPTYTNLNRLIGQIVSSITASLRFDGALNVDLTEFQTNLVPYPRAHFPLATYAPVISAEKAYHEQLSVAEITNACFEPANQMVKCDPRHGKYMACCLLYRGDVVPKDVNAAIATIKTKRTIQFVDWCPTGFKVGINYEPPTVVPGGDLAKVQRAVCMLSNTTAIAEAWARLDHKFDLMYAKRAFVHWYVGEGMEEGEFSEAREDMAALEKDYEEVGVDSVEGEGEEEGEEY
T2 sequence (P02554 whole entry): as the sequence (P02554 whole entry) above
T2 sequence (P02550 whole entry): as the sequence (P02550 whole entry) above

As to `CC[C@H](C)[C@H](NC(=O)[C@H]1CCCCN1C)C(=O)N(C)[C@H](CCc1nc(C(=O)N[C@H](CCC(=O)O)Cc2ccccc2)cs1)C(C)C` [pre-tubulysin-816, N-desmethyl-pretubulysin], the IC50 with L929 [1] came to 37 ng/mL (≈ 56.4 nM); with A549 [2], 95 ng/mL (≈ 145 nM); in the test on SW-480, 1.37 ng/mL (≈ 2.09 nM); in the test with U937 [3] it was 0.4 ng/mL (≈ 0.61 nM); in the test with L929 [4], 40 ng/mL (≈ 60.9 nM); in the test with A549 [5] it was 31.2 ng/mL (≈ 47.6 nM). For the same molecule, the IC50 was determined as 1.68 ng/mL (≈ 2.56 nM) with HEK293T, 2.5 ng/mL (≈ 3.81 nM) in the test on K562, 2.9 ng/mL (≈ 4.42 nM) with SH-SY5Y and 0.38 ng/mL (≈ 0.579 nM) in the test on U937 [6]. This molecule gave an inhibition at 1.7 µM in test [7] (1.7 μM drug) of about 20%. The same molecule yielded an inhibition at 6.7 µM in [7] (6.7 μM drug, printed as inhibition 'to 60%') of 60%. In addition, the “apoptosis induction (DNA laddering)” value with HL-60 cells is “able to induce apoptosis”. Moreover, the “concentration needed to induce apoptosis relative to pre-tubulysin-827” value with HL-60 cells (HL-60, same experimental conditions) was “about 10 folds”.
With `CC[C@H](C)[C@H](NC(=O)[C@H]1CCCCN1C)C(=O)N(C)[C@H](CCc1nc(C(=O)N[C@@H](Cc2ccccc2)C[C@H](C)C(=O)O)cs1)C(C)C` [pre-tubulysin-827, pretubulysin], the 50% inhibitory concentration (IC50) in the test on L929 [1] is 4.1 ng/mL (≈ 6.12 nM); in the test on A549 [2], 9 ng/mL (≈ 13.4 nM); with SW-480, 0.15 ng/mL (≈ 0.224 nM); in the test with U937 [3] it was 0.09 ng/mL (≈ 0.134 nM); in the test with L929 [4] it was 3.87 ng/mL (≈ 5.78 nM); in the test with A549 [5], 4.35 ng/mL (≈ 6.49 nM). Moreover, the concentration for half-maximal inhibition (IC50) came to 0.227 ng/mL (≈ 0.339 nM) in the test on HEK293T, 0.35 ng/mL (≈ 0.522 nM) in the test with K562, 0.61 ng/mL (≈ 0.911 nM) in the test with SH-SY5Y and 0.043 ng/mL (≈ 0.0642 nM) in the test on U937 [6]. Further, the inhibition at 1 µM in test [7] (1 μM drug) was about 45%. In test [7] (3.4 μM drug), this molecule returned an inhibition at 3.4 µM of over 85%. Besides, in test [8], the “de-polymerization of preassembled microtubules” value is reported as “induced de-polymerization of microtubules at substoichiometric concentrations”. In addition, the “apoptosis induction (DNA laddering)” value in the test on HL-60 cells is recorded as “able to induce apoptosis”. Besides, in [9], the “potency/toxicity of pre-tubulysin-827 relative to pre-tubulysin-816” value is reported as 5-10 folds.
